The text below walks through data of patent US20070093505A1, “2,3-Substituted 5,6-diaryl-pyrazine derivatives as cb1 modulators” (ASTRAZENECA AB, priority 2003, published 2007).

The structures appear in SMILES notation.

This assay has as its target T1, hCB1 (Homo sapiens, UniProt P21554).
T1 construct: expressed in transfected cells
Description: [35S]-GTPγS binding assay on membranes from cells stably transfected with the CB1 gene, inhibition of agonist CP55940. In kind it is biochemical. The conditions noted are these: EC80 concentration of agonist CP55940, membranes of CB1-transfected cells. The source says: Compounds of the present invention are active against the receptor product of the CB1 gene. The compounds of the present invention are active at the CB1 receptor (IC50<1 micromolar). Most preferred compounds have IC50<200 nanomolar. The affinity of the compounds of the invention for central cannabinoid receptors is demonstrable in methods described in Devane et al., Molecular Pharmacology, 1988, 34,605 or those described in WO01/70700 or EP 656354. Alternatively the assay may be performed as follows.
10 μg of membranes prepared from cells stably transfected with the CB1 gene were suspended in […] of 100 mM NaCl, 5 mM MgCl2, 1 mM EDTA, 50 mM HEPES (pH 7.4), 1 mM DTT, 0.1% BSA and 100 μM GDP. To this was added an EC80 concentration of agonist (CP55940), the required concentration of test compound and 0.1 μCi [^35S]-GTPγS. […] Filters were then covered with scintilant and counted for the amount of [^35S]-GTPγS retained by the filter.
Activity is measured in the absence of all ligands (minimum activity) or in the presence of an EC80 concentration of CP55940 (maximum activity). […] At various concentrations of novel ligand, activity is calculated as a percentage of the maximum activity and plotted. The data are fitted using the equation y=A+((B−A)/1+((C/x)UD)) and the IC50 value determined as the concentration required to give half maximal inhibition of GTPγS binding under the conditions used.
(GTPγS is a poorly hydrolysed GTP analogue; its binding reports G protein activation.)

T1 sequence (P21554 whole entry): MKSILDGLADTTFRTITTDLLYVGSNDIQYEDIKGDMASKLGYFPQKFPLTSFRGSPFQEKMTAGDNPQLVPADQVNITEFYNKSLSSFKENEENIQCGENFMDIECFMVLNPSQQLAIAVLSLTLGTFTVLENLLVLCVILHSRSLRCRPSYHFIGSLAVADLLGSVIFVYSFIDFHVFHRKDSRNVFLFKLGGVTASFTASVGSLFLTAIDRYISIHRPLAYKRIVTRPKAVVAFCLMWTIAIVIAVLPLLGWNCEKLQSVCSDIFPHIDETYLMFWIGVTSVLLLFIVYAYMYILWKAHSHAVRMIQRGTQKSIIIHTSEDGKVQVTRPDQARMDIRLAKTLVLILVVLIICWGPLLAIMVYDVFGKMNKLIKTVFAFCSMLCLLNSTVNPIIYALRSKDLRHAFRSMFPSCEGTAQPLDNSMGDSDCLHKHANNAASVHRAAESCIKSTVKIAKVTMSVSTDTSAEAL

Regarding `CC1COC(c2nc(-c3ccc(Cl)cc3)c(-c3ccc(Cl)cc3)nc2C(=O)OC(C)(C)C)=N1` (stereo not shown) [Example 5, 5,6-bis(4-chlorophenyl)-3-(4-methyl-4,5-dihydrooxazol-2-yl)-pyrazine-2-carboxylic acid tert-butylester], the IC50 (usually the midpoint of a concentration-inhibition curve) was found to be 1.8 nM. This counts as single-digit nanomolar.
